Measurements: ChEMBL document CHEMBL1201862, “PubChem BioAssay data set” (2004)
Active and inactive are the calls of the source.

Assays:
[1] = molecular target: Hepatocyte nuclear factor 4-alpha (Homo sapiens, UniProt P41235); format: functional, cell-based;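 also: biochemical luminescence-based dose-response counterscreen measuring inhibition of HNF4 dimerization, run alongside a screen for blockers of ABHD5–perilipin-5 interaction; split luciferase complementation of HNF4 fusion proteins in cell lysate measuring dimerization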
Hepatocyte nuclear factor 4-alpha, sequence (P41235 whole entry, the tested form may be a part): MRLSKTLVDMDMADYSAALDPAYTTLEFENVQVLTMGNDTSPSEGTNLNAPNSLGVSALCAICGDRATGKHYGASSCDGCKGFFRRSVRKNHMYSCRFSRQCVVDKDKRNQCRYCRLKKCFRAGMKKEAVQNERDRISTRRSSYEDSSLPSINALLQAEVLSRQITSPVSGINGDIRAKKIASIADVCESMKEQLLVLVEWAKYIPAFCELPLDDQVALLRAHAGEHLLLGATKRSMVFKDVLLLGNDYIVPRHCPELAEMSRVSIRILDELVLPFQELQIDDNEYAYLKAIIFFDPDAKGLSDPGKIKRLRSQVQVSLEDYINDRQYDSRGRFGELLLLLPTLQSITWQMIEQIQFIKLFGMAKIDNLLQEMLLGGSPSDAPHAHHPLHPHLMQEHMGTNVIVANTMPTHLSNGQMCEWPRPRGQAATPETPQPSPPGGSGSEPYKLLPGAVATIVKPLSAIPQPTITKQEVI

Streptokinase A = molecular target: T1, Streptokinase A (Streptococcus pyogenes serotype M1, UniProt P10520); test: viability-normalized secreted streptokinase activity reduction – plasminogen activation absorbance, OD405, dose response (AID 1914); format: functional, Streptococcus pyogenes M1 GAS;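 also: secreted streptokinase activity via plasminogen activation per viability signal from cell pellet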
T1 sequence (P10520 whole entry): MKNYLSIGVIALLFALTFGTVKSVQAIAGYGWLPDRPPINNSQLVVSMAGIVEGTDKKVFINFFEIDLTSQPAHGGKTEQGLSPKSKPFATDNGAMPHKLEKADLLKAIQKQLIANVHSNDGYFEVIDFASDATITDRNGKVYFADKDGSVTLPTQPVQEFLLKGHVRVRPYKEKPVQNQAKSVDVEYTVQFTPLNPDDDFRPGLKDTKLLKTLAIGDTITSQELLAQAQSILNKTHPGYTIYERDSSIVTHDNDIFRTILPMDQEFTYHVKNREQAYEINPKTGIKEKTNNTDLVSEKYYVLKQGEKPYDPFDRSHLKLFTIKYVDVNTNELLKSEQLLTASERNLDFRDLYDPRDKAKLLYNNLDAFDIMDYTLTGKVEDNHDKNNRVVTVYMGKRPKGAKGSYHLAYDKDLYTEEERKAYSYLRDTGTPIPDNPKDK

Nonstructural protein 1 = Nonstructural protein 1 (Influenza A virus, UniProt Q194T2); format: functional, Influenza A virus (A/California/07/2009(H1N1))
Nonstructural protein 1, sequence (Q194T2 whole entry): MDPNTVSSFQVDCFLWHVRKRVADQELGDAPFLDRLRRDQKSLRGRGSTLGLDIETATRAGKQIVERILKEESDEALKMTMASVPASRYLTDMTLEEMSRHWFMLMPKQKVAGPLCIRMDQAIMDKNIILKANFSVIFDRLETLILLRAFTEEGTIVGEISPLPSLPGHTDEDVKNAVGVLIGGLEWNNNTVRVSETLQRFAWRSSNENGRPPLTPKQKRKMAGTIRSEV

cells [2] = format: functional, cell-based
INS1 = test: INS-1E survival protection against cytokine death – cell-based, luminescence, retest, dose response (AID 449756); format: functional; details: Rattus norvegicus;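 also: cell death triggered by IL-1 beta plus TNF-alpha plus IFN-gamma mixture; protective hits raise ATP signal compared with cytokine alone wells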
[3] = molecular target: E3 ubiquitin-protein ligase Mdm2 (Homo sapiens, UniProt Q00987); test: MDM2-luc reporter signal enhancers, multi-concentration potency testing, MDM2 ubiquitin-protein ligase inhibitor program, whole-cell format, luminescence detection, 384-well microplate (AID 1394); format: functional;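 also: MDM2 E3 inhibitors raise luminescence so EC50 is for signal enhancement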
E3 ubiquitin-protein ligase Mdm2, sequence (Q00987 whole entry): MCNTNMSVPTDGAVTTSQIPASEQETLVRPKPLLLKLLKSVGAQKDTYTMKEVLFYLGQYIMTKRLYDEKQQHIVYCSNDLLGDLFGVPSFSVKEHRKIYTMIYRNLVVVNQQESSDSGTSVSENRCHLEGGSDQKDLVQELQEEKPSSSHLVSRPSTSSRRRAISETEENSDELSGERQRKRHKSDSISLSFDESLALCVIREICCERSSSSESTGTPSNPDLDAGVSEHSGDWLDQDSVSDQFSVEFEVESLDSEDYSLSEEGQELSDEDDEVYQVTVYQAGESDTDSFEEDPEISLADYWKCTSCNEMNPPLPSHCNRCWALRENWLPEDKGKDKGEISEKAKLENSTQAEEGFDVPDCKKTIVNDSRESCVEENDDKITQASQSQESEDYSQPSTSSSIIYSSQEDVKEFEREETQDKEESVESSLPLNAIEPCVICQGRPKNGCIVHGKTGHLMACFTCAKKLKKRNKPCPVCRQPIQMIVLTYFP

Protein RecA = molecular target: T2, Protein RecA (Mycobacterium tuberculosis, UniProt P9WHJ3); test: Fluorescence Cell-Free Homogeneous Dose Retest to Identify Inhibitors of RecA-Intein Splicing Activity. [Related pubchem assays (depositor defined):AID2097, AID2223, AID489010, AID492950]; format: functional
T2 sequence (P9WHJ3 whole entry): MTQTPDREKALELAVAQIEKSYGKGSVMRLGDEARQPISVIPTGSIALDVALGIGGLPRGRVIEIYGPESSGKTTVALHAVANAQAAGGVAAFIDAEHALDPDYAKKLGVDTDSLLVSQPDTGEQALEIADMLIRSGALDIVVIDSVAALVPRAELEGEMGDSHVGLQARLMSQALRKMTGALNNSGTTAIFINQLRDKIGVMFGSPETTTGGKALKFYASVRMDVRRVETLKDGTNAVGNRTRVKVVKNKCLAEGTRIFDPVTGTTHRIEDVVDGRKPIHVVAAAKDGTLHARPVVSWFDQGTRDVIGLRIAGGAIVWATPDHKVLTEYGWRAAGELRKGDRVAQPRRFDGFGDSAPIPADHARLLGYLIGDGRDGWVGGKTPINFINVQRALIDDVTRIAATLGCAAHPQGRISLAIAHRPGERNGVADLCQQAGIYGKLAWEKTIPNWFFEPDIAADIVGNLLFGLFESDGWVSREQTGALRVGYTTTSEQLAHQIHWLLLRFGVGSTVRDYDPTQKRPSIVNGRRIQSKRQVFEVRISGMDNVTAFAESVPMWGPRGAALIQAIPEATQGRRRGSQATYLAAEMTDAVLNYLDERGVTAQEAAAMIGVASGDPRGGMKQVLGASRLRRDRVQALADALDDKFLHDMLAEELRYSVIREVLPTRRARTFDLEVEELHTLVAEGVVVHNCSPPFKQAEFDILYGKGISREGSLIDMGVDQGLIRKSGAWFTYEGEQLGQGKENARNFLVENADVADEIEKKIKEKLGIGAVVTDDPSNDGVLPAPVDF

cells [4] = format: functional, cell-based; remark: listed apart in the source
[5] = molecular target: Photoreceptor-specific nuclear receptor (Homo sapiens, UniProt Q9Y5X4); format: functional, cell-based;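 also: CHO-S cells with Gal4-NCOR and VP16-NR2E3 two-hybrid luciferase reporter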
Photoreceptor-specific nuclear receptor, sequence (Q9Y5X4 whole entry, the tested form may be a part): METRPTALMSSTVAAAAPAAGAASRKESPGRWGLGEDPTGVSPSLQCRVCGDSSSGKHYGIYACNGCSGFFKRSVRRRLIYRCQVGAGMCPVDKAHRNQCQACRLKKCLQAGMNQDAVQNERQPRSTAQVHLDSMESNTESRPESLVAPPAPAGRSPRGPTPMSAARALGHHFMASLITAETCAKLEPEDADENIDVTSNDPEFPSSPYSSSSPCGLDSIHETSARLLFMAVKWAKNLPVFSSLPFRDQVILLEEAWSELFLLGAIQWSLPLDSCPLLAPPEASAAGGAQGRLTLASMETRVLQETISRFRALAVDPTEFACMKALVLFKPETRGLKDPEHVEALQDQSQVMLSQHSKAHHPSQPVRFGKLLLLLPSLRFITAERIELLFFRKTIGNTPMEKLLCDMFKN

Streptococcus = test: GAS UMAA2166 growth inhibition – luminescence, BacTiterGlo, counter-screen for streptokinase expression inhibitor project, dose response (AID 1915); format: functional, organism-based;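 also: potency for reduction of bacterial viability or growth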
[6] = microbe, parasite or virus in culture; format: functional; details: Mycobacterium tuberculosis
[7] = molecular target: T3, Heat shock factor protein 1 (Mus musculus, UniProt P38532); test: enhancement of HSF1-driven luciferase signal – cell-based, NIH3T3, luminescence, dose retest, confirmation (AID 435004); format: functional;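 also: stress induced by proteasome inhibitor MG132 added 30 min after compound; luciferase reporter driven by HSF1 response element in NIH3T3 cells; actives raise luminescence as potentiators of the MG132 stress response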
T3 sequence (P38532 whole entry): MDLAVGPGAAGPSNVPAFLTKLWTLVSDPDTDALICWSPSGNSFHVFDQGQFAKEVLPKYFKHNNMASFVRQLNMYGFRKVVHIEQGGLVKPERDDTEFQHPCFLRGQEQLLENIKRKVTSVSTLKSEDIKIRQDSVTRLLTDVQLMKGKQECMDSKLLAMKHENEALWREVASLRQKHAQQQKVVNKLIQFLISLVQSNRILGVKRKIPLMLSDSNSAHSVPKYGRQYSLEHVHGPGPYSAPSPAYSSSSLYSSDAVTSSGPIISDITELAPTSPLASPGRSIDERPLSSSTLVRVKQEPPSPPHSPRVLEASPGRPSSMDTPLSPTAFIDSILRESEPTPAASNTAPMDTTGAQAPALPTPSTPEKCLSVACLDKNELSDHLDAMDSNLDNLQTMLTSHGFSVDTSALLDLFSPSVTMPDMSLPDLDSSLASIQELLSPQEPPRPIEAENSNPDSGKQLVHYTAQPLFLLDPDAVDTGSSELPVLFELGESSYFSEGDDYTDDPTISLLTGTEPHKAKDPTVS

[8] = molecular target: T4, Replicative DNA helicase DnaB (Mycobacterium tuberculosis, UniProt P9WMR3); test: DnaB intein splicing inhibitors, dose response, biochemical, cell-free fluorescence (AID 449749); format: functional
T4 sequence (P9WMR3 whole entry): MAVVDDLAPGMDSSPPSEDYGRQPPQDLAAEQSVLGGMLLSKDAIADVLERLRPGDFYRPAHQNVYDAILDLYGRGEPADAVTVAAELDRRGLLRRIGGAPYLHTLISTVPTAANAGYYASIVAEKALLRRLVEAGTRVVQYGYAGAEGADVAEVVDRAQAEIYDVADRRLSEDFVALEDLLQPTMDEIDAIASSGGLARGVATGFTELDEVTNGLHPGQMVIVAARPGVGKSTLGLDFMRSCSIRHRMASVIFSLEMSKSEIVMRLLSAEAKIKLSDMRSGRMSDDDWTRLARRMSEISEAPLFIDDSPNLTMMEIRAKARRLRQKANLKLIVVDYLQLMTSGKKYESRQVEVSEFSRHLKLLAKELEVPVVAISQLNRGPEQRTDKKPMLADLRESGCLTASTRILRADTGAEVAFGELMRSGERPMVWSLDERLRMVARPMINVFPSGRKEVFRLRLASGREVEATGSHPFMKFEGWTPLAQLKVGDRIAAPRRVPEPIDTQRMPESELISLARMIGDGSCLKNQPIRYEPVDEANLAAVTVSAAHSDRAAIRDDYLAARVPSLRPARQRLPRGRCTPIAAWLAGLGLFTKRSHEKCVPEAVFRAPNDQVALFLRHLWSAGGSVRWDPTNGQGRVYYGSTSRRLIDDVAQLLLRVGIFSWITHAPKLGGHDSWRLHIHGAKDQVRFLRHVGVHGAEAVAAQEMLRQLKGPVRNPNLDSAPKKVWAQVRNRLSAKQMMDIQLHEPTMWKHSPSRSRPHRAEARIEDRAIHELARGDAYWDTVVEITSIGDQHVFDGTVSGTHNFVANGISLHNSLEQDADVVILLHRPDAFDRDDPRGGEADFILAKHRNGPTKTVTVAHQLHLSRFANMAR

[9] = test system: Streptococcus sp. 'group A'; test: Streptococcus pyogenes SK(-)GAS viability under kanamycin – luminescence, BacTiterGlo, confirmation, counter-screen for streptokinase expression inhibitor project, dose response (AID 1900); format: functional, organism-based
[10] = molecular target: T5, Carboxy-terminal domain RNA polymerase II polypeptide A small phosphatase 1 (Homo sapiens, UniProt Q9GZU7); test: CTDSP1 inhibitors, concentration-response, biochemical, absorbance readout, ultra-high-throughput screen actives (AID 540297); format: functional
T5 sequence (Q9GZU7 whole entry): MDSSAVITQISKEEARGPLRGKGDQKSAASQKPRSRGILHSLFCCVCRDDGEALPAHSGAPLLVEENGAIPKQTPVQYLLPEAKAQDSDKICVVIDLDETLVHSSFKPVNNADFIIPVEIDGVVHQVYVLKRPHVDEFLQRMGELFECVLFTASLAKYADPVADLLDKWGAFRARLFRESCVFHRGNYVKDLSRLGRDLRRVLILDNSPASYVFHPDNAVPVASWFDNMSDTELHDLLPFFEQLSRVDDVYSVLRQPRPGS

[11] = molecular target: T6, Tyrosine-protein phosphatase non-receptor type 22 (Homo sapiens, UniProt Q9Y2R2); test: PTPN22 enzyme inhibitors – biochemical, fluorescence, LYP catalytic domain, selectivity assay for LMPTP inhibitor project, dose response (AID 652006); format: functional; details: read-out: IC50_Mean
T6 sequence (Q9Y2R2 whole entry): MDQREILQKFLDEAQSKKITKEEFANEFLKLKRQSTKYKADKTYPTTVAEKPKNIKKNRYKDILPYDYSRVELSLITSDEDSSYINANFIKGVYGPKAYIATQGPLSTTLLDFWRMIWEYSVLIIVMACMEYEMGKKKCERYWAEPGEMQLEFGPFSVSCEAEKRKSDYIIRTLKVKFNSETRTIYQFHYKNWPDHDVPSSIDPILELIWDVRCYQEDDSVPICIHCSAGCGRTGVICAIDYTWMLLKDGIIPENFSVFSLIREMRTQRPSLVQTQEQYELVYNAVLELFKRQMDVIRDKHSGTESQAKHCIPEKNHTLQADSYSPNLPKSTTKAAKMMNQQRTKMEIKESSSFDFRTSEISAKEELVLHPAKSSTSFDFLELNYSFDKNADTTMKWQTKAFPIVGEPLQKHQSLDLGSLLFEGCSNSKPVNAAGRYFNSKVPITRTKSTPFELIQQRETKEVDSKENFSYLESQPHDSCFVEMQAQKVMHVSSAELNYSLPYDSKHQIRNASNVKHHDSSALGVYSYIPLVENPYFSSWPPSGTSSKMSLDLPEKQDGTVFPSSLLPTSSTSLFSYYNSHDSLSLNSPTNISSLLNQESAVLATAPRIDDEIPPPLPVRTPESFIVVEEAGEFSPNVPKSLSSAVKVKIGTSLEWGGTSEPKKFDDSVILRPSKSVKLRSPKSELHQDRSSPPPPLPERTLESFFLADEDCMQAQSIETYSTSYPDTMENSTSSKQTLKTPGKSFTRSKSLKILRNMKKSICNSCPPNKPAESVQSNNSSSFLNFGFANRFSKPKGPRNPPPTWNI

[12] = molecular target: Low molecular weight phosphotyrosine protein phosphatase (Homo sapiens, UniProt P24666); format: functional; details: read-out: IC50_Mean;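 also: Dose-response confirmation assay measuring inhibition of LMPTP enzyme activity by fluorescence intensity read-out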
Low molecular weight phosphotyrosine protein phosphatase, sequence (P24666 whole entry): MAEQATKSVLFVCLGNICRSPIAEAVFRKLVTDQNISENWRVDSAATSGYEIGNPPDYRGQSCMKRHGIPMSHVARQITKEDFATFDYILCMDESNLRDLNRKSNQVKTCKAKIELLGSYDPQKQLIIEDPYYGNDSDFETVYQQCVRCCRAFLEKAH

In the case of `Cc1cccc(C)c1NC(=O)C(c1ccc(-c2ccccc2)cc1)n1c(=O)c(-c2ccco2)nc2ccccc21` (configuration not stated), the IC50 [1] is reported as 1.34 µM (active).
For `Oc1[nH]c2ccccc2c1N=NC(=S)N1CCOCC1`, the EC50 (Streptokinase A) was > 150 µM (not active), the IC50 (Nonstructural protein 1) was 4.88 µM (active) and the EC50 (cells [2]) was 7.37 µM (active). The AC50 (INS1) was 2.25 µM (active), the EC50 [3] was 2.24 µM (not active) and the EC50 (Protein RecA) was 12.9 µM (active). For the same molecule, the EC50 (cells [4]) was > 350 µM (not active), the IC50 [5] was 4.03 µM (active) and the EC50 (Streptococcus) was 5.64 µM (active). The CC50 [6] was 5.25 µM (active), the EC50 [7] was 3.31 µM (inconclusive) and the AC50 [8] was > 380 µM (inactive). The EC50 [9] was 0.271 µM (active).
In the case of `NC(=O)Cc1ccc(C(=O)CSc2nnc(-c3ccncc3)n2C2CC2)s1`, the IC50 [10] is reported as 4.44 µM (active), the IC50 [11] is reported as 55.6 µM (inactive) and the IC50 [12] is reported as 21 µM (inactive).
